Reference: PubChem BioAssay (NCI)
Several values for one entry are separate records, joined by “and”; a condition that tells them apart may be missing. Identical values can stand only once.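 Test compounds were applied to cells in 96-well plates for 48 hours at 5 doses. The concentration for 50% growth inhibition is given as GI50. TGI: concentration producing complete growth inhibition.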

Key:
Test in all cases: growth of human tumour cells (NCI), 48 h
[1] = system: ACHN renal
[2] = system: CCRF-CEM leukemia
[3] = system: EKVX NSCLC
[4] = system: HL-60(TB) leukemia
[5] = system: MOLT-4 leukemia
[6] = system: NCI-H226 lung
[7] = system: NCI-H522 lung
[8] = system: OVCAR-4 ovarian
[9] = system: SF-295 CNS
[10] = system: SK-MEL-28 melanoma

## CCN(CC)CCCC(C)Nc1cc(-c2cccc(OC(F)(F)F)c2)nc2ccc(N3CCCC3)cc12 (stereo not given)
[1]
  GI50: 0.0744 µM
  TGI: 39 µM
[2]
  GI50: 0.0564 µM
  TGI: > 100 µM
[3]
  GI50: 0.069 µM
  TGI: > 100 µM
[4]
  GI50: 0.0528 µM
  TGI: 2.06 µM
[5]
  GI50: 0.306 µM
  TGI: > 100 µM
[6]
  GI50: 0.189 µM
  TGI: 9.57 µM
[7]
  GI50: 0.0249 µM
  TGI: 0.5 µM
[8]
  GI50: 0.483 µM
  TGI: > 100 µM
[9]
  GI50: 0.0404 µM
  TGI: 11.9 µM
[10]
  GI50: 5.85 µM
  TGI: 58.4 µM

## CCC[CH2][Sn]([CH2]CCC)([S]C#N)[S]C#N
[1]
  GI50: 1.24 µM
  TGI: 2.48 µM
[2]
  GI50: 0.224 µM
  TGI: 0.869 µM
[3]
  GI50: 1.36 µM
  TGI: 2.99 µM
[4]
  GI50: 0.389 µM
  TGI: 1.45 µM
[5]
  GI50: 0.462 µM
  TGI: 3.23 µM
[6]
  GI50: 1.77 µM
  TGI: 3.25 µM
[7]
  GI50: 0.0451 µM
  TGI: 0.224 µM
[8]
  GI50: 1.34 µM
  TGI: 2.74 µM
[9]
  GI50: 1.53 µM
  TGI: 2.94 µM
[10]
  GI50: 0.753 µM
  TGI: 2.15 µM

## Cc1cc(-c2c(F)cc3c4nn([C@H]5CC[C@@H](N(C)C)CC5)c(=O)c-4cn(C4CC4)c3c2F)cc(C)n1
[1]
  GI50: 0.0219 µM
  TGI: 0.171 µM and 0.928 µM
[2]
  GI50: 0.0033 µM
[3]
  TGI: 5.96 µM
[4]
  GI50: 0.00306 µM
  TGI: 0.0322 µM and 0.235 µM
[5]
  GI50: 0.002 µM
[6]
  GI50: 0.0368 µM
  TGI: 0.118 µM and 0.586 µM
[7]
  GI50: 0.0325 µM
  TGI: 0.144 µM and 0.771 µM
[8]
  GI50: 0.316 µM
[9]
  TGI: 0.717 µM
[10]
  GI50: 0.0689 µM
  TGI: 0.368 µM and 3.34 µM

## NC(=O)c1ccc(Oc2nccc(-c3c(-c4ccc(F)cc4)ncn3C3CCNCC3)n2)cc1
[1]
  GI50: > 25 µM
  TGI: > 25 µM
[2]
  GI50: > 25 µM
  TGI: > 25 µM
[3]
  GI50: > 25 µM
  TGI: > 25 µM
[4]
  GI50: > 25 µM
  TGI: > 25 µM
[5]
  GI50: > 25 µM
  TGI: > 25 µM
[6]
  GI50: > 25 µM
  TGI: > 25 µM
[7]
  GI50: > 25 µM
  TGI: > 25 µM
[8]
  GI50: > 25 µM
  TGI: > 25 µM
[9]
  GI50: > 25 µM
  TGI: > 25 µM
[10]
  GI50: > 25 µM
  TGI: > 25 µM

## COc1ccc2nc(C(=O)c3ccccc3)c(C)cc2c1
[1]
  TGI: > 100 µM
[2]
  TGI: > 100 µM
[3]
  TGI: > 100 µM
[4]
  TGI: > 100 µM
[5]
  TGI: > 100 µM
[6]
  TGI: > 86 µM
[7]
  TGI: 5.75 µM
[8]
  TGI: > 100 µM
[9]
  TGI: 9.23 µM
[10]
  TGI: > 62.2 µM

## O=C(O)/C(Cc1cn[nH]n1)=N\O
[1]
  TGI: > 100 µM
[2]
  TGI: > 100 µM
[3]
  TGI: > 100 µM
[4]
  TGI: > 100 µM
[5]
  TGI: > 100 µM
[6]
  TGI: > 100 µM
[7]
  TGI: > 100 µM
[8]
  TGI: > 100 µM
[9]
  TGI: > 100 µM
[10]
  TGI: > 100 µM

## C1CN(c2nnc(N3CCC3)nn2)C1
[1]
  TGI: > 92.1 µM
[2]
  TGI: > 100 µM
[3]
  TGI: > 100 µM
[4]
  TGI: > 100 µM
[5]
  TGI: > 100 µM
[6]
  TGI: > 100 µM
[7]
  TGI: 85.2 µM
[8]
  TGI: > 64.6 µM
[9]
  TGI: 69.6 µM
[10]
  TGI: > 68.3 µM

## Cc1c(C(=O)O)n(C)c(=O)n(C)c1=O
[1]
  TGI: > 100 µM
[2]
  TGI: > 100 µM
[3]
  TGI: > 100 µM
[4]
  TGI: > 100 µM
[5]
  TGI: > 100 µM
[6]
  TGI: > 100 µM
[7]
  TGI: > 100 µM
[8]
  TGI: > 100 µM
[9]
  TGI: > 100 µM
[10]
  TGI: > 100 µM

## C#C[C@@]1(O)[C@@H](CO)O[C@@H](n2cc(I)c3c(N)ncnc32)[C@@H]1O
[1]
  GI50: 0.314 µM
  TGI: > 100 µM
[2]
  GI50: 0.271 µM
  TGI: > 100 µM
[3]
  GI50: 0.408 µM
  TGI: 5.37 µM
[4]
  GI50: 0.0462 µM
  TGI: 0.262 µM
[5]
  GI50: 0.0489 µM
  TGI: 0.831 µM
[6]
  GI50: 1.72 µM
  TGI: > 100 µM
[7]
  GI50: 0.0993 µM
  TGI: 0.6 µM
[8]
  GI50: 0.809 µM
  TGI: > 100 µM
[9]
  GI50: 0.432 µM
  TGI: 3.77 µM
[10]
  GI50: 1.96 µM
  TGI: 11.4 µM

## COc1ccc(C2=Nc3ccccc3SC(C)C2)cc1OC (stereo not given)
[1]
  TGI: 58.1 µM
[2]
  TGI: 87.3 µM
[3]
  TGI: 56.5 µM
[4]
  TGI: 59.6 µM
[5]
  TGI: 34.8 µM
[6]
  TGI: 36.6 µM
[7]
  TGI: 32.1 µM
[8]
  TGI: 57.4 µM
[9]
  TGI: 38 µM
[10]
  TGI: 56.6 µM

## O=C(NCCCc1cn[nH]c1)c1ccc(-c2ccncc2)c(C#Cc2ccc(F)cc2)c1
[1]
  GI50: 6.91 µM
  TGI: > 100 µM
[2]
  GI50: < 0.01 µM
  TGI: > 100 µM
[3]
  GI50: 8.39 µM
  TGI: > 100 µM
[4]
  GI50: 1.85 µM
  TGI: 14.6 µM
[5]
  GI50: 1.02 µM
  TGI: > 57 µM
[6]
  GI50: 6.2 µM
  TGI: 51.3 µM
[7]
  GI50: < 0.0406 µM
  TGI: 53.2 µM
[8]
  GI50: 11.6 µM
  TGI: > 100 µM
[9]
  TGI: 47.9 µM
[10]
  GI50: 14.4 µM
  TGI: > 100 µM

## CN(C)CCCn1c(=O)c2ccccc2c2cnc3[nH]ccc3c21
[1]
  GI50: 0.564 µM
  TGI: 7.08 µM
[2]
  GI50: 1.53 µM
  TGI: 8.44 µM
[3]
  GI50: 2.27 µM
  TGI: 8.43 µM
[4]
  GI50: 3.27 µM
  TGI: 9.08 µM
[5]
  GI50: 0.838 µM
  TGI: 11 µM
[6]
  GI50: 0.862 µM
  TGI: 2.58 µM
[7]
  GI50: 1.82 µM
  TGI: 5.03 µM
[8]
  GI50: 1.92 µM
  TGI: 8.63 µM
[9]
  GI50: 1.18 µM
  TGI: 6.65 µM
[10]
  GI50: 2.23 µM
  TGI: 5.18 µM

## S=C1Cc2c(-c3ccc(Br)cc3)cc(-c3ccccc3)nc2-c2ccccc2N1
[1]
  GI50: 0.867 µM
  TGI: 2.35 µM
[2]
  TGI: 11.2 µM
[3]
  TGI: 4.67 µM
[4]
  TGI: > 100 µM
[5]
  TGI: 72 µM
[6]
  TGI: 8.54 µM
[7]
  TGI: 8.04 µM
[8]
  TGI: 1.43 µM
[9]
  TGI: 5.4 µM
[10]
  TGI: 27.3 µM
